Assay results published in PubChem BioAssay AID212 (DTP/NCI, 2004).
Several values for one entry are separate records, joined by “and”; a condition that tells them apart may be missing. Identical values can stand only once. Records with an inconclusive call do not appear. Where a SMILES comes first, the peptide text is derived from it. The star is where a group is joined. Trt = c1ccc(C(c2ccccc2)(c2ccccc2)*)cc1; Cbz = O=C(OCc1ccccc1)*; Bn = c1ccc(C*)cc1; βAla = NCCC(=O)O

Test system: BDF1 mice, colon carcinoma 38 sc, T/C %
Assay: NCI In Vivo Anticancer Drug Screen. Data for tumor model Colon Carcinoma 38 (subcutaneous) in B6D2F1 (BDF1) mice
Details: endpoint: median tumor weight (est.), higher = larger tumour
Outline: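 Mice with transplanted tumors are treated with compound or vehicle. Survival or tumor size is then measured in both groups. The ratio of treated to control gives the reported figure.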

[1] = dose: 3.12 mg/kg/injection, schedule: Q07DX002 (ip), vehicle: saline
[2] = dose: 6.25 mg/kg/injection, schedule: Q07DX002 (ip), vehicle: saline
[3] = dose: 12.5 mg/kg/injection, schedule: Q07DX002 (ip), vehicle: saline
[4] = dose: 25.0 mg/kg/injection, schedule: Q07DX002 (ip), vehicle: saline
[5] = dose: 2.0 mg/kg/injection, schedule: Q07DX002 (ip), vehicle: saline with Tween-80
[6] = dose: 4.0 mg/kg/injection, schedule: Q07DX002 (ip), vehicle: saline with Tween-80
[7] = dose: 6.25 mg/kg/injection, schedule: Q07DX002 (ip), vehicle: saline with Tween-80
[8] = dose: 25.0 mg/kg/injection, schedule: Q07DX002 (ip), vehicle: saline with Tween-80
[9] = dose: 50.0 mg/kg/injection, schedule: Q07DX002 (ip), vehicle: saline with Tween-80
[10] = dose: 50.0 mg/kg/injection, schedule: Q07DX002 (ip), vehicle: saline
[11] = dose: 100.0 mg/kg/injection, schedule: Q07DX002 (ip), vehicle: saline
[12] = dose: 50.0 mg/kg/injection, schedule: Q07DX002 (ip), vehicle: Klucel (hydroxypropylcellulose) (HPC)
[13] = dose: 100.0 mg/kg/injection, schedule: Q07DX002 (ip), vehicle: Klucel (hydroxypropylcellulose) (HPC)
[14] = dose: 200.0 mg/kg/injection, schedule: Q07DX002 (ip), vehicle: Klucel (hydroxypropylcellulose) (HPC)
[15] = dose: 400.0 mg/kg/injection, schedule: Q07DX002 (ip), vehicle: Klucel (hydroxypropylcellulose) (HPC)

N=C(N)CCCCCCCCC(=N)N
T/C (dose: 1.56 mg/kg/injection, schedule: Q07DX002 (ip), vehicle: saline): 102 % of control
T/C [1]: 88 % of control and 99 % of control
T/C [2]: 107 % of control
T/C [3]: 76 % of control
T/C [4]: 112 % of control

C=C(C)[C@H]1Cc2c(ccc3c2O[C@@H]2COc4cc(OC)c(OC)cc4[C@@H]2C3=O)O1
T/C (dose: 2.0 mg/kg/injection, schedule: Q07DX003 (ip), vehicle: saline with Tween-80): 230 % of control
T/C (dose: 8.0 mg/kg/injection, schedule: Q07DX003 (ip), vehicle: saline with Tween-80): 98 % of control

COC(C(=O)C(O)C(C)O)C1CC2C=C3C=C(OC4CC(OC5CC(O)C(OC)C(C)O5)C(OC(C)=O)C(C)O4)C(C)C(=O)C3=C(O)C2=C(O)C1OC1CC(OC2CC(OC3CC(C)(O)C(O)C(C)O3)C(O)C(C)O2)C(O)C(C)O1 (stereo unspecified)
T/C (dose: 1.0 mg/kg/injection, schedule: Q07DX002 (ip), vehicle: saline with Tween-80): 121 % of control
T/C [5]: 150 % of control
T/C [6]: 112 % of control
T/C (dose: 8.0 mg/kg/injection, schedule: Q07DX002 (ip), vehicle: saline with Tween-80): 114 % of control
T/C (dose: 16.0 mg/kg/injection, schedule: Q07DX002 (ip), vehicle: saline with Tween-80): 111 % of control

CN1CCN(CCCN2c3ccccc3Sc3ccc(C(F)(F)F)cc32)CC1
T/C [7]: 104 % of control
T/C [2]: 116 % of control
T/C [3]: 112 % of control
T/C [8]: 91 % of control
T/C [4]: 97 % of control
T/C [9]: 96 % of control
T/C [10]: 90 % of control
T/C [11]: 96 % of control
T/C (dose: 200.0 mg/kg/injection, schedule: Q07DX002 (ip), vehicle: saline): 74 % of control

O=S(=O)(c1ccccc1)N1CN2CCN(C2)C1
T/C [8]: 94 % of control
T/C [9]: 62 % of control

O=C1OC(C(O)CO)C(O)=C1O (stereo unspecified)
T/C [10]: 43 % of control
T/C [11]: 100 % of control
T/C (dose: 800.0 mg/kg/injection, schedule: Q07DX002 (ip), vehicle: saline): 83 % of control
T/C (dose: 1600.0 mg/kg/injection, schedule: Q07DX002 (ip), vehicle: saline): 100 % of control

Cc1cc2nc3[nH]c4ccccc4c3nc2cc1C
T/C (dose: 12.5 mg/kg/injection, schedule: Q07DX002 (ip), vehicle: Klucel (hydroxypropylcellulose) (HPC)): 164 % of control
T/C [12]: 199 % of control
T/C [13]: 172 % of control
T/C [14]: 220 % of control
T/C [15]: 223 % of control

COC(=O)C(CSC(c1ccccc1)(c1ccccc1)c1ccccc1)NC(=O)C(CSCc1ccccc1)NC(=O)CCNC(=O)OCc1ccccc1 (stereo unspecified) ({Cbz-βAla}-Cys(Bn)-Cys(Trt)-OMe; configuration not given here)
T/C (dose: 25.0 mg/kg/injection, schedule: Q07DX002 (ip), vehicle: Klucel (hydroxypropylcellulose) (HPC)): 106 % of control
T/C [12]: 109 % of control
T/C [13]: 96 % of control
T/C [14]: 87 % of control
T/C [15]: 123 % of control

NC(=O)c1cn(C2OC(CO)C(O)C2O)c2ncnc(N)c12 (stereo unspecified)
T/C (dose: 0.5 mg/kg/injection, schedule: Q07DX002 (ip), vehicle: suspension in saline): 55 % of control
T/C (dose: 1.0 mg/kg/injection, schedule: Q07DX002 (ip), vehicle: suspension in saline): 84 % of control
T/C [5]: 73 % of control
T/C (dose: 2.0 mg/kg/injection, schedule: Q07DX002 (ip), vehicle: suspension in saline): 56 % of control and 62 % of control
T/C [6]: 79 % of control
T/C (dose: 4.0 mg/kg/injection, schedule: Q07DX002 (ip), vehicle: suspension in saline): 48 % of control and 73 % of control
T/C (dose: 8.0 mg/kg/injection, schedule: Q07DX002 (ip), vehicle: suspension in saline): 38 % of control

Cc1c(-c2ccc(-c3ccccc3F)cc2)nc2ccc(F)cc2c1C(=O)O
T/C (dose: 5.0 mg/kg/injection, schedule: Q01DX008 (ip), vehicle: water): 24 % of control
T/C (dose: 10.0 mg/kg/injection, schedule: Q01DX008 (ip), vehicle: water): 5 % of control
T/C (dose: 20.0 mg/kg/injection, schedule: Q01DX008 (ip), vehicle: water): 16 % of control

O=NN(CCCl)C(=O)NC1OC(CO)C(O)C(O)C1O (stereo unspecified)
T/C (dose: 2.5 mg/kg/injection, schedule: Q07DX002 (ip), vehicle: saline): 114 % of control and 96 % of control
T/C (dose: 8.0 mg/kg/injection, schedule: Q07DX002 (ip), vehicle: saline): 88 % of control and 92 % of control
T/C (dose: 16.0 mg/kg/injection, schedule: Q07DX002 (ip), vehicle: saline): 34 % of control and 58 % of control

COC1=NCN=C2SC=C(N)N=C12
T/C [2]: 102 % of control
T/C [3]: 91 % of control
T/C (dose: 12.5 mg/kg/injection, schedule: Q07DX003 (ip), vehicle: saline): 104 % of control
T/C [4]: 101 % of control
T/C [10]: 85 % of control
T/C (dose: 50.0 mg/kg/injection, schedule: Q07DX003 (ip), vehicle: saline): 151 % of control
T/C (dose: 100.0 mg/kg/injection, schedule: Q07DX003 (ip), vehicle: saline): 154 % of control

O=C1c2ccccc2C(=O)c2c3c(cc(NCCNCCO)c21)N(CCO)CCN3
T/C (dose: 100.0 mg/kg/injection, schedule: Q07DX002 (ip), vehicle: DMSO): 96 % of control
T/C (dose: 200.0 mg/kg/injection, schedule: Q07DX002 (ip), vehicle: DMSO): 105 % of control
T/C (dose: 400.0 mg/kg/injection, schedule: Q07DX002 (ip), vehicle: DMSO): 117 % of control

Cc1c2c(ccc3ccccc32)c[n+]2ccccc12
T/C [1]: 154 % of control
T/C [2]: 118 % of control
T/C (dose: 12.5 mg/kg/injection, schedule: Q07DX002 (ip), vehicle: suspension in saline): 102 % of control
T/C [4]: 107 % of control
T/C (dose: 25.0 mg/kg/injection, schedule: Q07DX002 (ip), vehicle: suspension in saline): 91 % of control

CC(C#N)(C#N)N=Nc1ccc(Cl)cc1Cl
T/C [8]: 86 % of control and 101 % of control
T/C [9]: 50 % of control and 69 % of control
T/C (dose: 100.0 mg/kg/injection, schedule: Q07DX002 (ip), vehicle: saline with Tween-80): 66 % of control and 73 % of control
T/C (dose: 200.0 mg/kg/injection, schedule: Q07DX002 (ip), vehicle: saline with Tween-80): 58 % of control and 64 % of control
T/C (dose: 800.0 mg/kg/injection, schedule: Q07DX002 (ip), vehicle: saline with Tween-80): 63 % of control and 78 % of control

CCCCCCCCCCCCN1C(C)=CS/C1=C\C=C\c1scc(C)[n+]1CCCCCCCCCCCC
T/C (dose: 0.78 mg/kg/injection, schedule: Q07DX002 (ip), vehicle: saline with Tween-80): 124 % of control
T/C (dose: 1.56 mg/kg/injection, schedule: Q07DX002 (ip), vehicle: saline with Tween-80): 98 % of control
T/C (dose: 3.12 mg/kg/injection, schedule: Q07DX002 (ip), vehicle: saline with Tween-80): 79 % of control
T/C [7]: 88 % of control
T/C (dose: 12.0 mg/kg/injection, schedule: Q07DX002 (ip), vehicle: saline with Tween-80): 101 % of control
T/C (dose: 12.5 mg/kg/injection, schedule: Q07DX002 (ip), vehicle: saline with Tween-80): 120 % of control
